Series [1] is described as follows: Half life in mouse Hepatocyte. The following applies: hepatocytes. It is filed as ADME, cell-based.
Series [2] is described as follows: Cmax in ICR mouse at 10 mg/kg,po measured upto 24 hrs. The arrangement: time < 24 hrs, dose 10 mg/kg, route po. It is filed as ADME, organism-based. The conditions noted are these: in vivo.
Series [3] in a line: Oral bioavailability in rat at 10 mg/kg measured upto 24 hrs. It is filed as ADME, organism-based. The following applies: in vivo.
Series [4] is described as follows: Tmax in ICR mouse at 10 mg/kg,po measured upto 24 hrs. In kind it is ADME, organism-based. The following applies: in vivo.
The nature of series [5]: Aqueous solubility of compound in FeSSIF at pH 4.83. In kind it is physicochemical.
Series [6] in a line: Aqueous solubility of compound in FaSSIF at pH 6.28. In kind it is physicochemical.
Series [7] in a line: Half life in rat liver microsomes. It is filed as ADME, Microsome. For orientation: Liver microsomes are vesicles of endoplasmic reticulum, rich in cytochrome P450 enzymes.
Series [8] in a line: AUClast in ICR mouse at 10 mg/kg,po measured upto 24 hrs. The arrangement: time < 24 hrs, dose 10 mg/kg, route po. The conditions noted are these: in vivo. In kind it is ADME, organism-based.
Series [9] can be described thus: Aqueous solubility of compound in SGF at pH 2.26. It is filed as physicochemical.
The nature of series [10]: AUClast in ICR mouse at 1 mg/kg,iv measured upto 24 hrs. In kind it is ADME, organism-based. Details: dose 1 mg/kg, time < 24 hrs, route iv. The conditions noted are these: in vivo.
A short description of series [11]: Half life in mouse liver microsomes. In kind it is ADME, Microsome.
The nature of series [12]: Half life in dog liver microsomes. It is filed as ADME, Canis lupus familiaris, Microsome.
Series [13] can be described thus: Cmax in C57BL/6 mouse at 1 mg/kg,po measured upto 24 hrs. In kind it is ADME, organism-based. The arrangement: dose 1 mg/kg, time < 24 hrs, route po. The following applies: in vivo.
A short description of series [14]: Apparent permeability across apical to basolateral side in human Caco-2 cells. In kind it is ADME, cell-based. (Passage across Caco-2 layers is used to estimate intestinal permeability.)
The nature of series [15]: Half life in monkey liver microsomes. In kind it is ADME, Macaca mulatta, Microsome. The conditions noted are these: rhesus monkey.
A short description of series [16]: Apparent permeability across basolateral to apical side in human Caco-2 cells. It is filed as ADME, cell-based.
Series [17] is described as follows: Drug distribution in C57BL/6 mouse plasma at po administration. The following applies: in vivo. It is filed as ADME, organism-based.
A short description of series [18]: Half life in human liver microsomes. It is filed as ADME, Microsome.
A short description of series [19]: Clearance in ICR mouse at 1 mg/kg,iv measured upto 24 hrs. It is filed as ADME, organism-based. The following applies: in vivo.
The nature of series [20]: Oral bioavailability in dog at 10 mg/kg measured upto 24 hrs. It is filed as ADME, organism-based, Canis lupus familiaris. The conditions noted are these: in vivo.
Series [21] can be described thus: Volume of distribution at steady state in ICR mouse at 1 mg/kg,iv measured upto 24 hrs. It is filed as ADME, organism-based. The following applies: in vivo, read-out: Vdss.
A short description of series [22]: Oral bioavailability in ICR mouse at 10 mg/kg measured upto 24 hrs. In kind it is ADME, organism-based. The following applies: in vivo.
A short description of series [23]: Half life in ICR mouse at 1 mg/kg,iv measured upto 24 hrs. It is filed as ADME, organism-based. The conditions noted are these: in vivo.
A short description of series [24]: Cmax in ICR mouse at 1 mg/kg,iv measured upto 24 hrs. The following applies: in vivo. In kind it is ADME, organism-based. The arrangement: time < 24 hrs, dose 1 mg/kg, route iv.
Series [25] is described as follows: Half life in ICR mouse at 10 mg/kg,po measured upto 24 hrs. In kind it is ADME, organism-based. The following applies: in vivo.

In brackets after ≈: the same amount, converted by molar mass.

Turning to `COc1ncc(C(=O)N2CCN(C(=O)/C=C/c3ccc4c(c3)OC(F)(F)O4)CC2)cn1`, the half-life – broadly, the time in which the quantity being followed falls by half – in series [1] is 22.2 h; in series [7] it was more than 3.11 h; in series [11], more than 3.11 h; in series [12] it was more than 3.11 h; in [15], more than 3.11 h; in series [18] it was more than 3.11 h. Moreover, the Cmax – broadly, the highest concentration seen after dosing – was determined as 5900 ng/mL in series [2] and 878 ng/mL in series [13]. The bioavailability in [3] and in [20] was more than 100% throughout. The Tmax (in general, the time at which the peak concentration occurs) in series [4] was 1.33 h. The solubility (commonly the concentration that dissolves in the medium under given conditions) in series [5] was 134 µM (≈ 57.9 µg/mL); in [6], 40 µM (≈ 17.3 µg/mL); in [9], 63 µM (≈ 27.2 µg/mL). The area under the curve AUC(0-t) (in general, the area under the concentration-time curve up to a stated or last time point) at 24 h came out at 49700 ng·h/mL in series [8] and 4190 ng·h/mL in [10]. In addition, in series [14], the Papp A→B (commonly the apparent permeability from the apical to the basolateral side of a cell layer) was determined as 19.6 ×10⁻⁶ cm/s. In addition, in series [16], the basolateral-to-apical permeability (Papp B→A) (commonly how fast a substance crosses the layer from the basolateral side) amounted to 16 ×10⁻⁶ cm/s. Also, in series [17], the Drug uptake entry is “Dose-Dependent Effect”. The clearance (commonly a measure of how efficiently the substance is removed, as volume per time) in series [19] stood at 3.98 mL/min/kg.

Take `O=C(/C=C/c1ccc2c(c1)OC(F)(F)O2)N1CCN(C(=O)N2CCC2)CC1`: the figures for the Cmax in [2] and in series [24] were 4900 ng/mL and 1000 ng/mL, respectively. Further, the Vd in [21] turned out to be 0.94 L/kg. Further, the bioavailability in [22] was 116%. The time of peak concentration (Tmax) in series [4] was 0.25 h. In addition, the half-life in [23] is 0.42 h; in series [25], 1.43 h. Also, the AUC(0-t) at 24 h in series [8] is 6840 ng·h/mL; in series [10] it was 586 ng·h/mL. This compound also had a clearance in series [19] of 27.9 mL/min/kg.

(Values after ChEMBL document CHEMBL5375977, “Discovery of a First-in-Class GPR183 Antagonist for the Potential Treatment of Rheumatoid Arthritis” (J Med Chem, 2023).)
